Results: patent US20240239796A1, “CRYSTALLINE POLYMORPHS OF EPIDERMAL GROWTH FACTOR RECEPTOR INHIBITOR, AND COMPOSITIONS AND METHODS THEREOF” (Crimson BioPharm Inc., priority 2022, published 2024)
Like-named read-outs stand apart in the source and are kept apart here. One block for each compound: values may come before it.

Tests used:
Format in all cases: physicochemical
[1] = Inter-conversion study (competitive slurry); settings: for Slurry at 50° C. 1 or 7 d (wet cake) / Slurry at RT (~20° C.) 3 d (wet cake): competitive slurry in IPA, resulting form; for Form at 7 d: slurry in ACN/water 1/9 (v/v); for form after slurry: ACN-water (1/9)
Experimental: (20 mg/mL) and RT (10 mg/mL), and in ACN-water (1/9) at 50° C. (10 mg/mL) and RT (5 mg/mL).
The mixture of crystalline Form I and crystalline Form V of the sample was suspended in IPA at 50° C. (20 mg/mL) and RT (5 mg/mL).
The residual solids from both mixtures were obtained and characterized.

[2] = Stability study (grinding, high humidity)
Experimental: A certain amount (e.g., ˜10 mg) of crystalline Form I was ground for 2 min or put at 25° C./92.5% RH for 2 weeks. Then the sample was tested by XRPD to determine the physical stability.

Slurry study = settings: XRPD; for Form of wet cake at 1 day: 50° C.; for Form of wet cake at 4 days: RT (~20° C.), ~25 mg/mL
Experimental: Appropriate amount of crystalline Form I was added into different solvents to make suspension. The suspensions were kept stirring at room temperature (RT, ˜20° C.) or 50° C., respectively. Solid samples were collected and analyzed by XRPD at a specific time. If new XRPD patterns were identified, the sample was further analyzed by DSC and TGA.

Rough solubility testing = settings: for solubility: thermodynamic from solid, ~20° C., read-out: Solubility of Tosylate (mg/mL, ~20° C.); for solubility (in words): RT (~20° C.)
Experimental: About 2 mg of crystalline Form I was weighed into glass vials, and then different selected solvents were added in the vial stepwise until all solid was dissolved. This experiment was conducted by manual dilution combined with visual observation at ˜20° C. The total volume of solvent added was recorded.

Water activity study = test: Water activity study
Experimental: A certain amount (e.g., ˜70 mg) of crystalline Form I was stirred in 500 μL of acetone-water mixtures with different water content (5%, 10%, 30%, 50%, 70% and 90%) at RT (˜20° C.) for 3, 7 or 8 days. Residual solids were collected and characterized.

[3] = Form conversion on heating / desolvation (XRPD, FIG. 5, FIG. 8)
[4] = Dynamic moisture sorption analysis (DVS)
Experimental: DVS was determined using DVS Intrinsic (SMS, UK). A sample was tested at a targeted relative humidity (RH) of 10 to 90% full cycle in step mode. The analysis was performed in 10% RH increments: • Equilibrium: 60 min; • RH (%) measurement points: • Sorption: 0, 10, 20, 30, 40, 50, 60, 70, 80, 90 • Desorption: 80, 70, 60, 50, 40, 30, 20, 10, 0.

[5] = slurry in Acetone/water 1/1 (v/v), water activity 0.93, RT
[6] = slurry in Acetone/water 1/9 (v/v), water activity 0.98, RT
[7] = slurry in Acetone/water 3/7 (v/v), water activity 0.95, RT
[8] = slurry in Acetone/water 7/3 (v/v), water activity 0.88, RT
[9] = slurry in Acetone/water 9/1 (v/v), water activity 0.72, RT
[10] = slurry in Acetone/water 19/1 (v/v), water activity 0.31, RT

- Slurry at 50° C. 1 or 7 d (wet cake) ([1]; 50° C.): Form I
- Slurry at RT (~20° C.) 3 d (wet cake) ([1]; RT): Form I
- Form at 7 d ([1]; 50° C.): Form III
- Form at 7 d ([1]; RT (~20° C.)): Form VI
Structure (SMILES): C=CC(=O)Nc1cc(Nc2nccc(-n3ccc4cccnc43)n2)c(OC)cc1N(C)CCN(C)C.Cc1ccc(S(=O)(=O)O)cc1 [Form I and III (1:1)]

- Slurry at 50° C. 1 or 7 d (wet cake) ([1]; 50° C.): From I
- Slurry at RT (~20° C.) 3 d (wet cake) ([1]; RT): Form I
Structure (SMILES): C=CC(=O)Nc1cc(Nc2nccc(-n3ccc4cccnc43)n2)c(OC)cc1N(C)CCN(C)C.Cc1ccc(S(=O)(=O)O)cc1 [Form I and V (1:1)]

- solid-state stability ([2]; after stressing with temperature and high RH): good solid-state stability
- Physical stability (form change by XRPD) ([2]; high humidity, 25° C./92.5% RH for 2 weeks): No form change
- Physical stability (form change by XRPD) ([2]; mechanical stress (grinding, 2 min)): No form change
- form after slurry ([1]; 50° C.): crystalline Form III
- form after slurry ([1]; RT): crystalline Form VI
- relative stability among crystal forms ([1]; polymorph screening, anhydrate forms): most stable anhydrate form
- Form of wet cake at 1 day (Slurry study; slurry in ACN): Form I
- Form of wet cake at 4 days (Slurry study; slurry in ACN): Form I
- Form of wet cake at 1 day (Slurry study; slurry in Acetone): Form I
- Form of wet cake at 4 days (Slurry study; slurry in Acetone): Form I
- Form of wet cake at 1 day (Slurry study; slurry in EA): Form I
- Form of wet cake at 4 days (Slurry study; slurry in EA): Form I
- Form of wet cake at 1 day (Slurry study; slurry in EtOH): Form I
- Form of wet cake at 4 days (Slurry study; slurry in EtOH): Form I
- Form of wet cake at 1 day (Slurry study; slurry in Heptane): Form I
- Form of wet cake at 4 days (Slurry study; slurry in Heptane): Form I
- Form of wet cake at 1 day (Slurry study; slurry in IPA): Form I
- Form of wet cake at 4 days (Slurry study; slurry in IPA): Form I
- Form of wet cake at 1 day (Slurry study; slurry in IPAC): Form I
- Form of wet cake at 4 days (Slurry study; slurry in IPAC): Form I
- Form of wet cake at 1 day (Slurry study; slurry in Isobutanol): Form I
- Form of wet cake at 4 days (Slurry study; slurry in Isobutanol): Form I
- Form of wet cake at 1 day (Slurry study; slurry in MEK): Form I
- Form of wet cake at 4 days (Slurry study; slurry in MEK): Form I
- Form of wet cake at 1 day (Slurry study; slurry in MTBE): Form I
- Form of wet cake at 4 days (Slurry study; slurry in MTBE): Form I
- Form of wet cake at 1 day (Slurry study; slurry in THF): Form I
- Form of wet cake at 4 days (Slurry study; slurry in THF): Form I
- Form of wet cake at 1 day (Slurry study; slurry in Toluene): Form I
- Form of wet cake at 4 days (Slurry study; slurry in Toluene): Form I
- Form of wet cake at 1 day (Slurry study; slurry in Water): Form I
- Form of wet cake at 4 days (Slurry study; slurry in Water): Form I
- solubility (Rough solubility testing; ACN (acetonitrile), organic solvent or mixture, solvent ACN): ~2.2 mg/mL
- solubility (in words) (Rough solubility testing; in MeOH and DCM): relatively high solubility
- solubility (in words) (Rough solubility testing; in the other single solvents (not MeOH, DCM)): very low solubility
- solubility (Rough solubility testing; organic solvent or mixture, solvent Acetone): ~0.95 mg/mL
- solubility (Rough solubility testing; organic solvent or mixture, solvent DCM): ~5.1 mg/mL
- solubility (Rough solubility testing; organic solvent or mixture, solvent EA): < 1 mg/mL
- solubility (Rough solubility testing; organic solvent or mixture, solvent EtOH): ~1.9 mg/mL
- solubility (Rough solubility testing; organic solvent or mixture, solvent Heptane): < 1 mg/mL
- solubility (Rough solubility testing; organic solvent or mixture, solvent IPA): < 1.11 mg/mL
- solubility (Rough solubility testing; organic solvent or mixture, solvent IPAC): < 1.2 mg/mL
- solubility (Rough solubility testing; organic solvent or mixture, solvent Isobutanol): < 1 mg/mL
- solubility (Rough solubility testing; organic solvent or mixture, solvent MEK): ~0.92 mg/mL
- solubility (Rough solubility testing; organic solvent or mixture, solvent MTBE): < 1.1 mg/mL
- solubility (Rough solubility testing; organic solvent or mixture, solvent MeOH): ~27.3 mg/mL
- solubility (Rough solubility testing; organic solvent or mixture, solvent THF): < 1.14 mg/mL
- solubility (Rough solubility testing; organic solvent or mixture, solvent Toluene): < 1.2 mg/mL
- solubility (Rough solubility testing; solvent Water): < 1.02 mg/mL
- Form at 3 d (Water activity study; [5]): Form V
- Form at 7 d (Water activity study; [5]): Form V
- Form at 3 d (Water activity study; [6]): Form I
- Form at 7 d (Water activity study; [6]): Form I
- Form at 3 d (Water activity study; [7]): Form V
- Form at 7 d (Water activity study; [7]): Form V
- Form at 3 d (Water activity study; [8]): Form V
- Form at 7 d (Water activity study; [8]): Form V
- Form at 3 d (Water activity study; [9]): Form V
- Form at 7 d (Water activity study; [9]): Form V
- Form at 3 d (Water activity study; [10]): Form I
- Form at 7 d (Water activity study; [10]): Form VII
- Form at 8 d (Water activity study; [10]): Form V
Structure (SMILES): C=CC(=O)Nc1cc(Nc2nccc(-n3ccc4cccnc43)n2)c(OC)cc1N(C)CCN(C)C.Cc1ccc(S(=O)(=O)O)cc1 [Form I, N-(5-((4-(1H-pyrrolo[2,3-b]pyridin-1-yl)pyrimidin-2-yl)amino)-2-((2-(dimethylamino)ethyl)(methyl)amino)-4-methoxyphenyl)acrylamide tosylate salt]

- form conversion after desolvation ([3]; desolvation at 170° C.): transform to crystalline Form III
Structure (SMILES): C=CC(=O)Nc1cc(Nc2nccc(-n3ccc4cccnc43)n2)c(OC)cc1N(C)CCN(C)C.Cc1ccc(S(=O)(=O)O)cc1 [Form II, N-(5-((4-(1H-pyrrolo[2,3-b]pyridin-1-yl)pyrimidin-2-yl)amino)-2-((2-(dimethylamino)ethyl)(methyl)amino)-4-methoxyphenyl)acrylamide tosylate salt]

- form conversion on heating ([3]; heated to 200° C.): convert to crystalline Form III
Structure (SMILES): C=CC(=O)Nc1cc(Nc2nccc(-n3ccc4cccnc43)n2)c(OC)cc1N(C)CCN(C)C.Cc1ccc(S(=O)(=O)O)cc1 [Form IV, N-(5-((4-(1H-pyrrolo[2,3-b]pyridin-1-yl)pyrimidin-2-yl)amino)-2-((2-(dimethylamino)ethyl)(methyl)amino)-4-methoxyphenyl)acrylamide tosylate salt]

- water sorption ([4]; 80% RH and 25° C.): 0.72%
- hygroscopicity ([4]; DVS, 80% RH and 25° C.): slightly hygroscopic
- crystalline form change after DVS test ([4]; after DVS test): no crystalline form change
Structure (SMILES): C=CC(=O)Nc1cc(Nc2nccc(-n3ccc4cccnc43)n2)c(OC)cc1N(C)CCN(C)C.Cc1ccc(S(=O)(=O)O)cc1 [Form VI, N-(5-((4-(1H-pyrrolo[2,3-b]pyridin-1-yl)pyrimidin-2-yl)amino)-2-((2-(dimethylamino)ethyl)(methyl)amino)-4-methoxyphenyl)acrylamide tosylate salt]
